According to US20220348569A1 (priority 2021, published 2022):
Where “and” joins values, the source holds several entries; their conditions need not be identical. Equal entries are not always repeated. Where two headings read alike, the source gives them in different places.

Test system: SARS-CoV-2 pseudoviruses carrying spike mutations of B.1.1.7 UK, B.1.351 RSA and B.1.617.2 India (Delta) variants
Type: cell-based

| SMILES | antiviral activity against mutant pseudoviruses (in words) | IC50 (read-out: IC50) | IC50 (read-out: IC50 in the range for all the pseudovirus variants) [nM] | IC50 (read-out: IC50 against B.1.617.2 Delta single, double and triple mutant variants) [nM] |
| --- | --- | --- | --- | --- |
| O=C(O)c1cc(-c2ccc(/C=C3\SC(=S)N(CCc4ccccc4)C3=O)o2)ccc1Cl [Compound 1, (Z)-2-Chloro-5-(5-((4-oxo-3-phenethyl-2-thioxothiazolidin-5-ylidene)methyl)furan-2-yl)benzoic acid] | potent antiviral activity against all mutant pseudoviruses | 57 nM and 33 nM |  |  |
| O=C(O)c1cccc(-c2ccc(/C=C3\SC(=S)N(CCc4ccccc4)C3=O)o2)c1 [Compound 2] | highly potent inhibitor against all mutant pseudoviruses |  | 35 to 88.7 |  |
| O=C(O)c1cc(-c2ccc(/C=C3\SC(=S)N(CCc4ccccc4)C3=O)o2)ccc1F [Compound 3] | slightly less efficient against all the pseudoviruses tested | 232 ± 17 nM |  |  |
| Cc1ccc(-c2ccc(/C=C3\SC(=S)N(CCc4ccccc4)C3=O)o2)cc1C(=O)O [Compound 4] |  |  |  | 148 to 239 |
| Cc1c(C(=O)O)cccc1-c1ccc(/C=C2\SC(=S)N(CCc3ccccc3)C2=O)o1 [Compound 5] | poor/no activity | > 2000 nM and 1730 nM and 1850 nM and 1720 nM |  |  |
